Test results as given in article PMC9287381, “Structure-based rational design of an enhanced fluorogen-activating protein for fluorogens based on GFP chromophore” (Communications Biology, 2022).
Positions count from the first letter of the chain named.

Tests used:
Experiment in all cases: spectrofluorometric titration of protein with chromophore
[1] = biological target: T1, FAST (Fluorescence-Activating and absorption-Shifting Tag) (Halorhodospira halophila, UniProt P16113, C69G/Y94W/T95M/F96I/D97P/Y98T/Q99S/M100R/T101G); format: binding; details: 0.10 µM protein, 25 °C
T1 construct: gene pyp; engineered full-length PYP variant (~14 kDa); E. coli BL21(DE3)
T1 sequence (P16113 1-125 C69G/Y94W/T95M/F96I/D97P/Y98T/Q99S/M100R/T101G): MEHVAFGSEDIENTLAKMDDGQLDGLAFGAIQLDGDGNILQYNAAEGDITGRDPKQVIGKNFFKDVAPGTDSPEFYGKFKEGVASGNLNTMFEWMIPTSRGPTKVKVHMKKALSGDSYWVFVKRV
Text: (§1) spectrofluorometric titration of protein with chromophore on FAST (Fluorescence-Activating and absorption-Shifting Tag)

[2] = biological target: T2, FAST (Fluorescence-Activating and absorption-Shifting Tag) (Halorhodospira halophila, UniProt P16113, C69G/D97P/F96I/M100R/Q99S/R52Y/T101G/T95M/Y94W/Y98T); format: binding
T2 construct: gene pyp; engineered full-length PYP variant (~14 kDa); E. coli BL21(DE3)
T2 sequence (P16113 1-125 R52Y/C69G/Y94W/T95M/F96I/D97P/Y98T/Q99S/M100R/T101G): T1 sequence (P16113 1-125 C69G/Y94W/T95M/F96I/D97P/Y98T/Q99S/M100R/T101G) with R52Y
Text: as §1

[3] = biological target: T3, FAST (Fluorescence-Activating and absorption-Shifting Tag) (Halorhodospira halophila, UniProt P16113, R52L/C69G/Y94W/T95M/F96I/D97P/Y98T/Q99S/M100R/T101G); format: binding; details: 0.10 µM protein, 25 °C
T3 construct: gene pyp; engineered full-length PYP variant (~14 kDa); E. coli BL21(DE3)
T3 sequence (P16113 1-125 R52L/C69G/Y94W/T95M/F96I/D97P/Y98T/Q99S/M100R/T101G): T1 sequence (P16113 1-125 C69G/Y94W/T95M/F96I/D97P/Y98T/Q99S/M100R/T101G) with R52L
Text: as §1

[4] = biological target: T4, pFAST; format: binding, Halorhodospira halophila; details: 0.10 µM protein, 25 °C
T4 construct: gene pyp; multipoint directed-evolution variant of FAST (itself engineered PYP); E. coli BL21(DE3)
Text: spectrofluorometric titration of protein with chromophore on pFAST

[5] = biological target: T5, FAST (Fluorescence-Activating and absorption-Shifting Tag) (Halorhodospira halophila, UniProt P16113, R52Y/C69G/Y94W/T95M/F96I/D97P/Y98T/Q99S/M100R/T101G); format: binding; details: 0.10 µM protein, 25 °C
T5 construct: gene pyp; engineered full-length PYP variant (~14 kDa); E. coli BL21(DE3)
T5 sequence (P16113 1-125 R52Y/C69G/Y94W/T95M/F96I/D97P/Y98T/Q99S/M100R/T101G): T1 sequence (P16113 1-125 C69G/Y94W/T95M/F96I/D97P/Y98T/Q99S/M100R/T101G) with R52Y
Text: as §1

[6] = biological target: T6, FAST (Fluorescence-Activating and absorption-Shifting Tag) (Halorhodospira halophila, UniProt P16113, C69G/Y94W/T95M/F96I/D97P/Y98T/Q99R/M100R/T101G); format: binding; details: 0.10 µM protein, 25 °C
T6 construct: gene pyp; engineered full-length PYP variant (~14 kDa); E. coli BL21(DE3)
T6 sequence (P16113 1-125 C69G/Y94W/T95M/F96I/D97P/Y98T/Q99R/M100R/T101G): T1 sequence (P16113 1-125 C69G/Y94W/T95M/F96I/D97P/Y98T/Q99S/M100R/T101G) with S99R

[7] = biological target: T7, FAST (Fluorescence-Activating and absorption-Shifting Tag) (Halorhodospira halophila, UniProt P16113, C69G/Y94W/T95M/F96I/D97P/Y98T/Q99K/M100R/T101G); format: binding; details: 0.10 µM protein, 25 °C
T7 construct: gene pyp; engineered full-length PYP variant (~14 kDa); E. coli BL21(DE3)
T7 sequence (P16113 1-125 C69G/Y94W/T95M/F96I/D97P/Y98T/Q99K/M100R/T101G): T1 sequence (P16113 1-125 C69G/Y94W/T95M/F96I/D97P/Y98T/Q99S/M100R/T101G) with S99K

[8] = biological target: T8, FAST (Fluorescence-Activating and absorption-Shifting Tag) (Halorhodospira halophila, UniProt P16113, R52E/C69G/Y94W/T95M/F96I/D97P/Y98T/Q99S/M100R/T101G); format: binding; details: 0.10 µM protein, 25 °C
T8 construct: gene pyp; engineered full-length PYP variant (~14 kDa); E. coli BL21(DE3)
T8 sequence (P16113 1-125 R52E/C69G/Y94W/T95M/F96I/D97P/Y98T/Q99S/M100R/T101G): T1 sequence (P16113 1-125 C69G/Y94W/T95M/F96I/D97P/Y98T/Q99S/M100R/T101G) with R52E
Text: (§2) spectrofluorometric titration of protein with chromophore on FAST (Fluorescence-Activating and absorption-Shifting Tag) | studied their properties in complex with N871b fluorogen

[9] = biological target: T9, FAST (Fluorescence-Activating and absorption-Shifting Tag) (Halorhodospira halophila, UniProt P16113, R52E/D65R/C69G/Y94W/T95M/F96I/D97P/Y98T/Q99S/M100R/T101G); format: binding; details: 0.10 µM protein, 25 °C
T9 construct: gene pyp; engineered full-length PYP variant (~14 kDa); E. coli BL21(DE3)
T9 sequence (P16113 1-125 R52E/D65R/C69G/Y94W/T95M/F96I/D97P/Y98T/Q99S/M100R/T101G): T1 sequence (P16113 1-125 C69G/Y94W/T95M/F96I/D97P/Y98T/Q99S/M100R/T101G) with R52E, D65R
Text: as §2

[10] = biological target: T10, FAST (Fluorescence-Activating and absorption-Shifting Tag) (Halorhodospira halophila, UniProt P16113, P68K/C69G/Y94W/T95M/F96I/D97P/Y98T/Q99S/M100R/T101G); format: binding; details: 0.10 µM protein, 25 °C
T10 construct: gene pyp; engineered full-length PYP variant (~14 kDa); E. coli BL21(DE3)
T10 sequence (P16113 1-125 P68K/C69G/Y94W/T95M/F96I/D97P/Y98T/Q99S/M100R/T101G): T1 sequence (P16113 1-125 C69G/Y94W/T95M/F96I/D97P/Y98T/Q99S/M100R/T101G) with P68K
Text: (§3) spectrofluorometric titration of protein with chromophore on FAST (Fluorescence-Activating and absorption-Shifting Tag) | all the S99 mutants, P73S, P68K, D65K

[11] = biological target: T11, FAST (Fluorescence-Activating and absorption-Shifting Tag) (Halorhodospira halophila, UniProt P16113, D65K/C69G/Y94W/T95M/F96I/D97P/Y98T/Q99S/M100R/T101G); format: binding; details: 0.10 µM protein, 25 °C
T11 construct: gene pyp; engineered full-length PYP variant (~14 kDa); E. coli BL21(DE3)
T11 sequence (P16113 1-125 D65K/C69G/Y94W/T95M/F96I/D97P/Y98T/Q99S/M100R/T101G): T1 sequence (P16113 1-125 C69G/Y94W/T95M/F96I/D97P/Y98T/Q99S/M100R/T101G) with D65K
Text: as §3

[12] = biological target: T12, FAST (Fluorescence-Activating and absorption-Shifting Tag) (Halorhodospira halophila, UniProt P16113, C69G/P73S/Y94W/T95M/F96I/D97P/Y98T/Q99S/M100R/T101G); format: binding; details: 0.10 µM protein, 25 °C
T12 construct: gene pyp; engineered full-length PYP variant (~14 kDa); E. coli BL21(DE3)
T12 sequence (P16113 1-125 C69G/P73S/Y94W/T95M/F96I/D97P/Y98T/Q99S/M100R/T101G): T1 sequence (P16113 1-125 C69G/Y94W/T95M/F96I/D97P/Y98T/Q99S/M100R/T101G) with P73S
Text: as §3

[13] = biological target: T13, FAST (Fluorescence-Activating and absorption-Shifting Tag) (Halorhodospira halophila, UniProt P16113, C69G/Y94W/T95M/F96I/D97P/Y98T/Q99E/M100R/T101G); format: binding; details: 0.10 µM protein, 25 °C
T13 construct: gene pyp; engineered full-length PYP variant (~14 kDa); E. coli BL21(DE3)
T13 sequence (P16113 1-125 C69G/Y94W/T95M/F96I/D97P/Y98T/Q99E/M100R/T101G): T1 sequence (P16113 1-125 C69G/Y94W/T95M/F96I/D97P/Y98T/Q99S/M100R/T101G) with S99E

SMILES	Kd [1] [µM]	Kd [2] [µM]	Kd [3] [µM]	Kd [4] [µM]	Kd [5] [µM]	Kd [6] [nM]	Kd [7] [nM]	Kd [8] [nM]	Kd [9] [nM]	Kd [10] [nM]	Kd [11] [nM]	Kd [12] [nM]	Kd [13] [nM]
COc1cc(O)ccc1/C=C1N=C(/C=C/c2cccs2)N(C)C\1=O [MCL.1b]	0.2 ± 0.04	0.27 ± 0.06	0.44 ± 0.2	0.023 ± 0.003	–	–	–	–	–	–	–	–	–
COc1cc(O)ccc1/C=C1N=C(/C=C/c2ccccn2)N(C)C\1=O [MCL.1f]	0.27 ± 0.04	0.31 ± 0.05	0.39 ± 0.1	0.029 ± 0.005	–	–	–	–	–	–	–	–	–
COc1cc(O)ccc1/C=C1\N=C2C=C(/C=C/c3ccncc3)C=CN2C1=O [MCL.3a]	0.08 ± 0.01	–	0.06 ± 0.01	0.025 ± 0.002	0.11 ± 0.02	–	–	–	–	–	–	–	–
COc1cc(O)ccc1/C=C1N=C(/C=C/c2ccncc2)N(C)C\1=O [N871b]	0.33 ± 0.01	0.24 ± 0.02	0.27 ± 0.01	0.04 ± 0.002	–	240 ± 10	270 ± 10	1300 ± 70	1360 ± 220	220 ± 10	250 ± 10	170 ± 10	210 ± 10
